Reference: PubChem BioAssay AID602161 (Broad Institute, 2011)
Records with an inconclusive call do not appear.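 The calls were made as follows: active = AC50 fitted at or below twice the top tested dose, with falling luminescence, in every repeat test; inconclusive = mixed repeat results, weak flat response, or poor curve fit; inactive = the rest.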

target: Heat shock protein HSP 90-alpha (Homo sapiens) (UniProt P07900); assay: HsHsp90-dependent glucocorticoid receptor activity inhibition – S. cerevisiae, beta-galactosidase luminescence, dry powder, selectivity assay for Plasmodium Hsp90 inhibitor project, dose response (AID 602161); conditions: S. cerevisiae HsHsp90 GR reporter, beta-gal luminescence

AC50, active:
O=S(=O)(/C=C/c1ccccc1)NC1CCCCCCC1 9.6 µM
O=S(=O)(NC1CCCCCC1)c1ccc(Br)s1 2.6 µM
O=C(CSCC(=O)N1CCCCC1)Nc1nc(-c2ccc(Cl)s2)cs1 9.72 µM
COc1ccc2c(c1)C=C(C(=O)NCc1ccc(Cl)cc1)CO2 9.79 µM
CCOc1cc(S(=O)(=O)NC2CCCCCC2)ccc1F 22.2 µM
Cc1ccc(OCc2n[nH]c(=S)n2C2CCCCC2)cc1 12.6 µM
